In patent US20250277186A1, “COMPOUND MICROBIAL INOCULUM WITH BACTERIOSTATIC EFFECT AND USE THEREOF IN PREPARATION OF YOGURT” (priority 2023, published 2025):

How the values were obtained:
[1] = test system: Lactiplantibacillus plantarum FMBL L23036 CNN; test: Antibiotic sensitivity, drug-sensitive paper; for Antibiotic sensitivity of Lactiplantibacillus plantarum FMBL L23036 CNN: key: R: resistant; I: intermediately sensitive; S: sensitive; type: cell-based; details: for Antibiotic sensitivity of Lactiplantibacillus plantarum FMBL L23036 CNN: drug-sensitive paper (content per Table 3), MRS solid medium, anaerobic 37° C. 24 h; for Resistant / sensitive, Lactiplantibacillus plantarum FMBL L23036 CNN: text statement for the two strains
Procedure: (§1) After two strains were cultured anaerobically at 37° C. at a 2% inoculation rate for 24 h, 100 μL (about 1×10^7 cfu/mL) of a bacteria solution of each strain was coated on the surface of an MRS solid medium, and then drug-sensitive paper (purchased from Oxoid Company, UK) was lightly pressed tightly in the middle of each of the mediums; and after anaerobic culture was carried out at 37° C. for 24 h, the bacteriostatic condition of the drug-sensitive paper was observed, and the diameter of the inhibition zone was measured.

[2] = test system: Lacticaseibacillus rhamnosus FMBL L23004 CNN; test: Antibiotic sensitivity, drug-sensitive paper; for Antibiotic sensitivity of Lacticaseibacillus rhamnosus FMBL L23004 CNN: key: R: resistant; I: intermediately sensitive; S: sensitive; type: cell-based; details: for Antibiotic sensitivity of Lacticaseibacillus rhamnosus FMBL L23004 CNN: drug-sensitive paper (content per Table 3), MRS solid medium, anaerobic 37° C. 24 h; for Resistant / sensitive, Lacticaseibacillus rhamnosus FMBL L23004 CNN: text statement for the two strains
Procedure: as §1

Compound | Antibiotic sensitivity of Lactiplantibacillus plantarum FMBL L23036 CNN [1] | Resistant / sensitive, Lactiplantibacillus plantarum FMBL L23036 CNN [1] | Antibiotic sensitivity of Lacticaseibacillus rhamnosus FMBL L23004 CNN [2] | Resistant / sensitive, Lacticaseibacillus rhamnosus FMBL L23004 CNN [2]
NCC[C@H](O)C(=O)N[C@@H]1C[C@H](N)[C@@H](O[C@H]2O[C@H](CN)[C@@H](O)[C@H](O)[C@H]2O)[C@H](O)[C@H]1O[C@H]1O[C@H](CO)[C@@H](O)[C@H](N)[C@H]1O [Amikacin] | R | resistant | R | resistant
CC1(C)S[C@@H]2[C@H](NC(=O)[C@H](N)c3ccc(O)cc3)C(=O)N2[C@H]1C(=O)O [Amoxicillin] | S | sensitive | S | sensitive
CC1(C)S[C@@H]2[C@H](NC(=O)[C@H](N)c3ccccc3)C(=O)N2[C@H]1C(=O)O [Ampicillin] | S | sensitive | S | sensitive
O=C(Cc1cccs1)N[C@@H]1C(=O)N2C(C(=O)[O-])=C(C[n+]3ccccc3)CS[C@H]12 [Cephaloridine] | S | sensitive | S | sensitive
O=C(N[C@H](CO)[C@H](O)c1ccc([N+](=O)[O-])cc1)C(Cl)Cl [Chloramphenicol] | S | sensitive | S | sensitive
O=C(O)c1cn(C2CC2)c2cc(N3CCNCC3)c(F)cc2c1=O [Ciprofloxacin] | R | resistant | R | resistant
CCC[C@@H]1C[C@@H](C(=O)N[C@@H]([C@H]2O[C@H](SC)[C@H](O)[C@@H](O)[C@H]2O)[C@H](C)Cl)N(C)C1 [Clindamycin] | S |  | S | 
CC[C@H]1OC(=O)[C@H](C)[C@@H](O[C@H]2C[C@@](C)(OC)[C@@H](O)[C@H](C)O2)[C@H](C)[C@@H](O[C@@H]2O[C@H](C)C[C@H](N(C)C)[C@H]2O)[C@](C)(O)C[C@@H](C)C(=O)[C@H](C)[C@@H](O)[C@]1(C)O [Erythromycin] | I |  | S | 
NC[C@H]1O[C@H](O[C@H]2[C@H](O)[C@@H](O[C@H]3O[C@H](CO)[C@@H](O)[C@H](N)[C@H]3O)[C@H](N)C[C@@H]2N)[C@H](O)[C@@H](O)[C@@H]1O [Kanamycin] | R |  | R | 
CN(C)c1ccc(O)c2c1C[C@H]1C[C@H]3[C@H](N(C)C)C(O)=C(C(N)=O)C(=O)[C@@]3(O)C(O)=C1C2=O [Minocycline] | S |  | S | 
CCn1cc(C(=O)O)c(=O)c2cc(F)c(N3CCNCC3)cc21 [Norfloxacin] | R | resistant | R | resistant
Cc1onc(-c2ccccc2)c1C(=O)N[C@@H]1C(=O)N2[C@@H]1SC(C)(C)[C@@H]2C(=O)O [Oxacillin] | R |  | I | 
CO[C@H]1/C=C/O[C@@]2(C)Oc3c(C)c(O)c4c(O)c(c(/C=N/N5CCN(C)CC5)c(O)c4c3C2=O)NC(=O)/C(C)=C\C=C\[C@H](C)[C@H](O)[C@@H](C)[C@@H](O)[C@@H](C)[C@H](OC(C)=O)[C@@H]1C [Rifampicin] | S |  | S | 
[H]/N=C(/N)N[C@H]1[C@H](O)[C@@H](O)[C@H](O[C@@H]2O[C@@H](C)[C@](O)(C=O)[C@H]2O[C@@H]2O[C@@H](CO)[C@H](O)[C@@H](O)[C@@H]2NC)[C@@H](N/C(N)=N\[H])[C@@H]1O [Streptomycin] | R |  | I | 
CN(C)[C@@H]1C(O)=C(C(N)=O)C(=O)[C@@]2(O)C(O)=C3C(=O)c4c(O)cccc4[C@@](C)(O)[C@H]3C[C@@H]12 [Tetracycline] | S |  | S | 
CN[C@H](CC(C)C)C(=O)N[C@H]1C(=O)N[C@@H](CC(N)=O)C(=O)N[C@H]2C(=O)N[C@H]3C(=O)N[C@H](C(=O)N[C@H](C(=O)O)c4cc(O)cc(O)c4-c4cc3ccc4O)[C@H](O)c3ccc(c(Cl)c3)Oc3cc2cc(c3O[C@@H]2O[C@H](CO)[C@@H](O)[C@H](O)[C@H]2O[C@H]2C[C@](C)(N)[C@H](O)[C@H](C)O2)Oc2ccc(cc2Cl)[C@H]1O [Vancomycin] | R | resistant | R | resistant
Gentamicin | R | resistant | R | resistant
Penicillin | S | sensitive | S | sensitive
Polymyxin | R | resistant | R | resistant
Teicoplanin | R | resistant | R | resistant
